Structures can show the parent of a compound that is named as a salt.

The text below walks through data of patent US10030225B2, “Cell culture media” (Merck Patent GmbH, priority 2012, dated 2018).

The nature of one data set: Solubility in water. As to conditions: for solubility (in words): comparison with tyrosine, refers to table 1; for solubility at 20° C. / solubility at 25° C. / solubility at 30° C.: in water.
Data set [1] deals with Recombinant CHO cells. Nature of the data set: Fed batch process with neutral pH feed containing phospho-Tyr salts, 30 mL spin tubes. Type of data set: cell-based. As to conditions: 30 mM in feed at pH 7.0; control tyrosine 2Na+ and Cysteine in separate feed at pH 11. Here is the method:
FIGS. 5 and 6 show the viable cell density and IgG concentration over time in a fed batch process. Recombinant CHO cells are grown in fully chemically defined basal media and a feed containing phospho-Tyr salts at pH 7.0 is added on day 3; 5, 7 and 9 (addition of % v/v of 3%; 6% 6% 6%). […]. In these cases, Cysteine is still added as a separate feed at pH 11.
The process is performed in 30 mL spin tubes at 37° C., 5% CO2, agitation 320 rpm. For control, according to the state of the art, tyrosine 2Na+ and Cysteine are solubilized at pH 11 in a separate feed and added at day 3; 5; 7; 9 in %(V/V) of 0.3%, 0.6%, 0.6% and 0.6%.
The glucose concentration is measured every day and adjusted accordingly to maintain a concentration>2 g/L

The test system of data set [2] is cells. Nature of the data set: Batch experiment in chemically defined medium where Cysteine was replaced by S-sulfocysteine sodium salt. The note with it: 1.5 and 3 mM, equivalent concentration to Cysteine. The data set is classed as cell-based. Here is the method:
Batch experiment in chemically defined medium where Cysteine was replaced by S-sulfocysteine sodium salt (equivalent concentration). The CDM powder used as basis was depleted in Cysteine and Cystine and supplemented during reconstitution with Cysteine for the control conditions (1.5 and 3 mM) or with S-sulfocysteine sodium salt for the test conditions (1.5 and 3 mM).

For data set [3], the system named is Recombinant CHO cells. Nature of the data set: Fed batch process with feed containing S-sulfocysteine and PTyr 2Na+ at pH 7.0, 1.2 L bioreactors. Type of data set: cell-based. The note with it: main feed pH 7.0, in combination with PTyr 2Na+; control tyrosine 2Na+ and Cysteine at pH 11. How it is done:
FIGS. 7 and 8 show the viable cell density and IgG concentration over time in a fed batch process. Recombinant CHO cells are grown in fully chemically defined basal media and a feed containing both S-sulfocysteine and PTyr 2Na+ at pH 7.0. Feed is added on day 3; 5, 7, 9 and 14 (addition of % v/v of 3%; 6% 6% 6%, 3%). The process is performed in 1.2 L bioreactors at 37° C., pH 7.0, 50% dissolved oxygen, agitation 140 rpm. For control, according to the state of the art, tyrosine 2Na+ and Cysteine are solubilized at pH 11 in a separate feed and added at day 3; 5; 7; 9, 14 in %(V/V) of 0.3%, 0.6%, 0.6%, 0.6%, 0.3%. The glucose concentration is measured every day and adjusted accordingly to maintain a concentration>2 g/L

For data set [4], the system named is cells. Nature of the data set: Batch experiment in chemically defined medium where tyrosine was replaced by PTyr salts. The data set is classed as cell-based. The text has this:
Batch experiment in chemically defined medium where tyrosine was replaced by PTyr salts. PTyr means (S)-2-Amino-3-(4-phosphonooxy-phenyl)-propionic-acid salt.

`N[C@@H](Cc1ccc(OP(=O)([O-])O)cc1)C(=O)O.[Na+]` [D3]: in “Solubility in water”, the “solubility (in words)” value is “higher solubility”, the “solubility at 20° C.” value is on record as 5.5%, the “solubility at 25° C.” value was determined as 5.3% and the “solubility at 30° C.” value came out at 11.4%.

Turning to `N[C@@H](Cc1ccc(OP(=O)([O-])[O-])cc1)C(=O)O.[Na+].[Na+]` [D4], in “Solubility in water”, the “solubility (in words)” value is recorded as “very good solubility”, the “solubility at 20° C.” value is listed as 9.8%, the “solubility at 25° C.” value is 10.1% and the “solubility at 30° C.” value turned out to be 9.2%. For the same compound, in the data set with Recombinant CHO cells [1], the “impact on growth (viable cell density)” value is on record as “no negative impact” and the “impact on titer (IgG concentration)” value was “no negative impact”.

For `N[C@@H](Cc1ccc(OP(=O)(O)O)cc1)C(=O)O` [PTyr Magnesium salt, (S)-2-Amino-3-(4-phosphonooxy-phenyl)-propionic-acid 2:1-magnesium salt], in the data set on Recombinant CHO cells [1], the “impact on growth (viable cell density)” value is given as “no negative impact” and the “impact on titer (IgG concentration)” value is on record as “no negative impact”.

Consider `N[C@@H](Cc1ccc(OP(=O)([O-])O)cc1)C(=O)O.[K+]` [PTyr Potassium salt, (S)-2-Amino-3-(4-phosphonooxy-phenyl)-propionic-acid mono potassium salt], for which, in the data set on Recombinant CHO cells [1], the “impact on growth (viable cell density)” value was “no negative impact” and the “impact on titer (IgG concentration)” value is “no negative impact”.

As for `N[C@H](CSS(=O)(=O)[O-])C(=O)[O-].[Na+].[Na+]` [S-sulfocysteine sodium salt, (S)-2-amino-3-sulfosulfanylpropanoic acid sodium salt], in the data set with cells [2], the “cell growth versus Cysteine control” value was “comparable growth”. For the same compound, in the data set on Recombinant CHO cells [3], the “growth (viable cell density) in comparison to the control” value was “extended growth” and the “titer (IgG concentration) in comparison to the control” value is recorded as “significant increase”.

As for “(S)-2-Amino-3-(4-phosphonooxy-phenyl)-propionic-acid salt [PTyr]”, the “maximum viable cell density versus control” value with cells [4] (PTyr 4.5 mM in the CDM versus 1 mM tyrosine in the control) is recorded as “even higher”. Besides, the extended growth with cells [4] (PTyr 4.5 mM in the CDM versus control) amounted to 2 days. Moreover, the cell growth result with cells [4] (PTyr at the same concentration as Tyrosine in the medium (1 mM in the control)) is given as “cells didn't grow”.
